One assay relates to HCC1806. Briefly: Cell viability assay (CellTiter-Glo). To be noted: HCC1806, 7 days, CellTiter-Glo, read-out: IC50 (nM) in cell viability assay. Format: cell-based, Human. Background: In ATP-based viability assays light output follows the ATP content of the culture.
For a further assay, the target named is PARG (Homo sapiens, UniProt Q86W56). Put plainly: Biochemical assay (PARG, TFMU-ADPr substrate).

Where two headings read alike, the source gives them in different places.

PARG, sequence (Q86W56 whole entry): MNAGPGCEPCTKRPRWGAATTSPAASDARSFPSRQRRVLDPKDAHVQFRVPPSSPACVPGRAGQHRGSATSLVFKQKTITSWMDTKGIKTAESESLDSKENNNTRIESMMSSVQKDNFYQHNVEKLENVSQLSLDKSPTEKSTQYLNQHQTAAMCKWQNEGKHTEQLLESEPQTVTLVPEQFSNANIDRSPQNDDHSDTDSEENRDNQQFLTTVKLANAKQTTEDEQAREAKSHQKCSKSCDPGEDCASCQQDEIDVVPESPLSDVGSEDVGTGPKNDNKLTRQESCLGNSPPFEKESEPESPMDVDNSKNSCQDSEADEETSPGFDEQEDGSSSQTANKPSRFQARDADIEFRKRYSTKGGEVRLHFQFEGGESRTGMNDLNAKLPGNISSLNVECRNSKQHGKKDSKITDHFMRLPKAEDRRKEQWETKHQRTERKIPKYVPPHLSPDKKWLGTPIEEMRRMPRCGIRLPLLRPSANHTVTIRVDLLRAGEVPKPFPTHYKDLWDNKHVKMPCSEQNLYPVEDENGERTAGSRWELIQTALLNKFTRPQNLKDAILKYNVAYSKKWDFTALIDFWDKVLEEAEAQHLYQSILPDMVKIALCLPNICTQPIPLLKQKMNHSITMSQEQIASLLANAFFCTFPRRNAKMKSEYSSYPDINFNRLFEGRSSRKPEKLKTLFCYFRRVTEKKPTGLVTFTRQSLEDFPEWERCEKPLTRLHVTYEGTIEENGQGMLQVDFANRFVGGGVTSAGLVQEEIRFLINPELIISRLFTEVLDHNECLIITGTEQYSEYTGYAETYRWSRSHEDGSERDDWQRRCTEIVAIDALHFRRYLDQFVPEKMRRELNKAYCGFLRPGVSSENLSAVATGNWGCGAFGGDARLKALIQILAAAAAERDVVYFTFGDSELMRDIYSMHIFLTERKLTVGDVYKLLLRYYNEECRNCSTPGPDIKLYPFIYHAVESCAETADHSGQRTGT

Turning to `N#CC1(NS(=O)(=O)c2cc(N3CCC(n4ccnn4)CC3)c3cnc(-c4nnc(C(F)(F)F)s4)n3c2)CC1` [Example 218, 8-(4-(1H-1,2,3-triazol-1-yl)piperidin-1-yl)-N-(1-cyanocyclopropyl)-3-(5-(trifluoromethyl)-1,3,4-thiadiazol-2-yl)imidazo[1,5-a]pyridine-6-sulfonamide], the IC50 – broadly, the concentration at which inhibition is half-maximal – with HCC1806 (Homo sapiens, HCC1806, 168 h) came to 1050 nM; on PARG (PARG, TFMU-ADPr substrate), 39.8 nM.
Take `C[C@H]1CN(c2cc(S(=O)(=O)NC3(C)COC3)cn3c(-c4nnc(C(F)(F)F)s4)ncc23)C[C@H](C)O1` [Example 355, 8-((2S,6S)-2,6-dimethylmorpholino)-N-(3-methyloxetan-3-yl)-3-(5-(trifluoromethyl)-1,3,4-thiadiazol-2-yl)imidazo[1,5-a]pyridine-6-sulfonamide]: the IC50 is 85 nM in the assay on HCC1806 (Homo sapiens, HCC1806, 168 h) and 0.5 nM on PARG (PARG, TFMU-ADPr substrate).
Take `CC1(NS(=O)(=O)c2cc(N3CCN(C(=O)C4CC(=O)N4)CC3)c3cnc(-c4nnc(C(F)(F)F)s4)n3c2)CC1` (stereo not shown) [Example 343, N-(1-methylcyclopropyl)-8-(4-(4-oxoazetidine-2-carbonyl)piperazin-1-yl)-3-(5-(trifluoromethyl)-1,3,4-thiadiazol-2-yl)imidazo[1,5-a]pyridine-6-sulfonamide]: the IC50 was 852 nM in the assay on HCC1806 (Homo sapiens, HCC1806, 168 h) and 5.41 nM against PARG (PARG, TFMU-ADPr substrate).
Regarding `CN(C)CC(=O)N1CCN(c2cc(S(=O)(=O)NC3(C#N)CC3)cn3c(-c4nnc(C(F)(F)F)s4)ncc23)CC1` [Example 250, N-(1-cyanocyclopropyl)-8-(4-(dimethylglycyl)piperazin-1-yl)-3-(5-(trifluoromethyl)-1,3,4-thiadiazol-2-yl)imidazo[1,5-a]pyridine-6-sulfonamide], the half-maximal inhibitory concentration (IC50) was 1280 nM with HCC1806 (Homo sapiens, HCC1806, 168 h) and 38 nM on PARG (PARG, TFMU-ADPr substrate).
Take `C[C@H]1CN(c2cc(S(=O)(=O)NC3(C)COC3)cn3c(-c4nnc(C(F)F)s4)cnc23)C[C@H](C)N1` [Example 182, 3-(5-(difluoromethyl)-1,3,4-thiadiazol-2-yl)-8-((3S,5S)-3,5-dimethylpiperazin-1-yl)-N-(3-methyloxetan-3-yl)imidazo[1,2-a]pyridine-6-sulfonamide]: the IC50 in the assay with HCC1806 (Homo sapiens, HCC1806, 168 h) amounted to 128 nM; at PARG (PARG, TFMU-ADPr substrate), 0.53 nM.
As for `C[C@H]1CN(c2cc(S(=O)(=O)NC3(C)COC3)cn3c(-c4nnc(C(F)F)s4)ncc23)C[C@H](C)N1C` [Example 400, 3-(5-(difluoromethyl)-1,3,4-thiadiazol-2-yl)-N-(3-methyloxetan-3-yl)-8-((3S,5S)-3,4,5-trimethylpiperazin-1-yl)imidazo[1,5-a]pyridine-6-sulfonamide], the IC50 was 267 nM in the assay on HCC1806 (Homo sapiens, HCC1806, 168 h) and 6.31 nM against PARG (PARG, TFMU-ADPr substrate).
For `CC1(NS(=O)(=O)c2cc(N3CCN(C(=O)c4c[nH]cn4)CC3)c3cnc(-c4nnc(C(F)F)s4)n3c2)CC1` [Example 340, 8-(4-(1H-imidazole-4-carbonyl)piperazin-1-yl)-3-(5-(difluoromethyl)-1,3,4-thiadiazol-2-yl)-N-(1-methylcyclopropyl)imidazo[1,5-a]pyridine-6-sulfonamide], the concentration for half-maximal inhibition (IC50) with HCC1806 (Homo sapiens, HCC1806, 168 h) stood at 1580 nM; against PARG (PARG, TFMU-ADPr substrate), 2.15 nM.
The like results for `CN1CC[C@@H]1C(=O)N1CCN(c2cc(S(=O)(=O)NC3(C)CC3)cn3c(-c4nnc(C(F)F)s4)ncc23)CC1` [Example 309, (R)-3-(5-(difluoromethyl)-1,3,4-thiadiazol-2-yl)-8-(4-(1-methylazetidine-2-carbonyl)piperazin-1-yl)-N-(1-methylcyclopropyl)imidazo[1,5-a]pyridine-6-sulfonamide] were, in that order, 570 nM and 1.03 nM.
Consider `COC[C@H]1CN(c2cc(S(=O)(=O)NC3(C)COC3)cn3c(-c4nnc(C(F)F)s4)ncc23)C[C@H](C)N1` [Example 404, 3-(5-(difluoromethyl)-1,3,4-thiadiazol-2-yl)-8-((3R,5S)-3-(methoxymethyl)-5-methylpiperazin-1-yl)-N-(3-methyloxetan-3-yl)imidazo[1,5-a]pyridine-6-sulfonamide], for which the half-maximal inhibitory concentration (IC50) with HCC1806 (Homo sapiens, HCC1806, 168 h) stood at 27 nM; on PARG (PARG, TFMU-ADPr substrate), 1.09 nM.
For the compound `COC(C)C(=O)N1CCN(c2cc(S(=O)(=O)NC3(C#N)CC3)cn3c(-c4nnc(C(F)(F)F)s4)ncc23)CC1` (stereo not shown) [Example 260, N-(1-cyanocyclopropyl)-8-(4-(2-methoxypropanoyl)piperazin-1-yl)-3-(5-(trifluoromethyl)-1,3,4-thiadiazol-2-yl)imidazo[1,5-a]pyridine-6-sulfonamide], the half-inhibitory concentration (IC50) in the assay with HCC1806 (Homo sapiens, HCC1806, 168 h) is 250 nM; at PARG (PARG, TFMU-ADPr substrate), 28.8 nM.
For `N#CC1(NS(=O)(=O)c2cc(C3CCN(C(=O)C4(O)CC4)CC3)c3cnc(-c4nnc(C(F)(F)F)s4)n3c2)CC1` [Example 372, N-(1-cyanocyclopropyl)-8-(1-(1-hydroxycyclopropane-1-carbonyl)piperidin-4-yl)-3-(5-(trifluoromethyl)-1,3,4-thiadiazol-2-yl)imidazo[1,5-a]pyridine-6-sulfonamide] the same measures were 580 nM and 3.8 nM.
`CC(C)C(=O)N1CCN(c2cc(S(=O)(=O)NC3(C#N)CC3)cn3c(-c4nnc(C(F)(F)F)s4)ncc23)C(C)C1` (stereo not shown) [Example 344, N-(1-cyanocyclopropyl)-8-(4-isobutyryl-2-methylpiperazin-1-yl)-3-(5-(trifluoromethyl)-1,3,4-thiadiazol-2-yl)imidazo[1,5-a]pyridine-6-sulfonamide]: the IC50 came to 586 nM in the assay on HCC1806 (Homo sapiens, HCC1806, 168 h) and 38.3 nM against PARG (PARG, TFMU-ADPr substrate).
For `CC(C)OCC1CN(c2cc(S(=O)(=O)NC3(C)COC3)cn3c(-c4nnc(C(F)F)s4)nc(Cl)c23)CCN1` (stereo not shown) [Example 137, 1-chloro-3-(5-(difluoromethyl)-1,3,4-thiadiazol-2-yl)-8-(3-(isopropoxymethyl)piperazin-1-yl)-N-(3-methyloxetan-3-yl)imidazo[1,5-a]pyridine-6-sulfonamide] the same measures were 332 nM and 15.8 nM.
For `CO[C@H]1C[C@H](C(=O)N2CCN(c3cc(S(=O)(=O)NC4(C#N)CC4)cn4c(-c5nnc(C(F)(F)F)s5)ncc34)CC2)C1` [Example 245, N-(1-cyanocyclopropyl)-8-(4-((1r,3r)-3-methoxycyclobutane-1-carbonyl)piperazin-1-yl)-3-(5-(trifluoromethyl)-1,3,4-thiadiazol-2-yl)imidazo[1,5-a]pyridine-6-sulfonamide] the same measures were 2360 nM and 28.8 nM.
The like results for `CC(C)OC1(C(=O)N2CCN(c3cc(S(=O)(=O)NC4(C)CC4)cn4c(-c5nnc(C(F)(F)F)s5)ncc34)CC2)CC1` [Example 202, 8-(4-(1-isopropoxycyclopropane-1-carbonyl)piperazin-1-yl)-N-(1-methylcyclopropyl)-3-(5-(trifluoromethyl)-1,3,4-thiadiazol-2-yl)imidazo[1,5-a]pyridine-6-sulfonamide] were, in that order, 133 nM and 1.16 nM.
As for `COCC1CN(c2cc(S(=O)(=O)NC3(CF)COC3)cn3c(-c4nnc(C(F)F)s4)ncc23)CCN1` (stereo not shown) [Example 356, 3-(5-(difluoromethyl)-1,3,4-thiadiazol-2-yl)-N-(3-(fluoromethyl)oxetan-3-yl)-8-(3-(methoxymethyl)piperazin-1-yl)imidazo[1,5-a]pyridine-6-sulfonamide], the IC50 was found to be 305 nM in the assay with HCC1806 (Homo sapiens, HCC1806, 168 h) and 6.31 nM against PARG (PARG, TFMU-ADPr substrate).
`N#CC1(NS(=O)(=O)c2ccc3c(C4=CC5(CC4)CN(C(=O)C4CC4(F)F)C5)nc(-c4nnc(C(F)(F)F)s4)n3c2)CC1` (stereo not shown) [Example 232, N-(1-cyanocyclopropyl)-1-(2-(2,2-difluorocyclopropane-1-carbonyl)-2-azaspiro[3.4]oct-5-en-6-yl)-3-(5-(trifluoromethyl)-1,3,4-thiadiazol-2-yl)imidazo[1,5-a]pyridine-6-sulfonamide]: the half-maximal inhibitory concentration (IC50) in the assay on HCC1806 (Homo sapiens, HCC1806, 168 h) worked out at 953 nM; at PARG (PARG, TFMU-ADPr substrate), 31.6 nM.
For `CC1(NS(=O)(=O)c2cc(N3CCN(C(=O)C4CCO4)CC3)c3cnc(-c4nnc(C(F)(F)F)s4)n3c2)CC1` (stereo not shown) [Example 304, N-(1-methylcyclopropyl)-8-(4-(oxetane-2-carbonyl)piperazin-1-yl)-3-(5-(trifluoromethyl)-1,3,4-thiadiazol-2-yl)imidazo[1,5-a]pyridine-6-sulfonamide] the same measures were 70 nM and 3.86 nM.
As to `CC(C)(O)C1CCN(c2cc(S(=O)(=O)NC3(CF)CC3)cn3c(-c4nnc(C(F)F)s4)nnc23)CC1` [Example 109, 3-(5-(difluoromethyl)-1,3,4-thiadiazol-2-yl)-N-(1-(fluoromethyl)cyclopropyl)-8-(4-(2-hydroxypropan-2-yl)piperidin-1-yl)-[1,2,4]triazolo[4,3-a]pyridine-6-sulfonamide], the IC50 is 7000 nM in the assay on HCC1806; 5000 to 30000 nM in the assay with HCC1806 (Homo sapiens, HCC1806, 168 h); less than 100 nM at PARG (4 nM PARG, 66.2 uM TFMU-ADPr, 3 min at room temperature); 30.5 nM at PARG (PARG, TFMU-ADPr substrate).
As to `COCC1CN(c2cc(S(=O)(=O)NC3(C)COC3)cn3c(-c4nnc(C(F)F)s4)ncc23)CCN1` (stereo not shown) [Example 357, 3-(5-(difluoromethyl)-1,3,4-thiadiazol-2-yl)-8-(3-(methoxymethyl)piperazin-1-yl)-N-(3-methyloxetan-3-yl)imidazo[1,5-a]pyridine-6-sulfonamide], the IC50 turned out to be 208 nM in the assay with HCC1806 (Homo sapiens, HCC1806, 168 h) and 8.31 nM on PARG (PARG, TFMU-ADPr substrate).
For the compound `CC1(NS(=O)(=O)c2cc(N3CCN(C(=O)[C@H]4CCN4CCF)CC3)c3cnc(-c4nnc(C(F)(F)F)s4)n3c2)CC1` [Example 320, (R)-8-(4-(1-(2-fluoroethyl)azetidine-2-carbonyl)piperazin-1-yl)-N-(1-methylcyclopropyl)-3-(5-(trifluoromethyl)-1,3,4-thiadiazol-2-yl)imidazo[1,5-a]pyridine-6-sulfonamide], the IC50 worked out at 93.9 nM in the assay on HCC1806 (Homo sapiens, HCC1806, 168 h) and 2.71 nM on PARG (PARG, TFMU-ADPr substrate).
The like results for `CC(C)C(=O)N1CCN(c2cc(S(=O)(=O)NC3(C)CC3)cn3c(-c4nnc(C(F)(F)F)s4)nc(C#N)c23)CC1` [Example 164, 1-cyano-8-(4-isobutyrylpiperazin-1-yl)-N-(1-methylcyclopropyl)-3-(5-(trifluoromethyl)-1,3,4-thiadiazol-2-yl)imidazo[1,5-a]pyridine-6-sulfonamide] were, in that order, 100 nM and 3.31 nM.

The values are drawn from patent publication US20260258035A1, “FIVE-MEMBERED AND SIX-MEMBERED NITROGEN-CONTAINING COMPOUND, AND INTERMEDIATE, PREPARATION METHOD AND USE THEREOF” (HANGZHOU SYNRX THERAPEUTICS BIOMEDICAL TECHNOLOGY CO., LTD., priority 2022, published 2026).
